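In this assay, cells in 96-well plates receive the compound at five concentrations for 48 hours. Endpoints are linearly interpolated between the surrounding concentrations. GI50 = concentration required for 50% inhibition of growth. TGI marks complete inhibition of growth.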
Assays:
Assay in all cases: NCI tumour cell line growth inhibition, 48 h
786-0 renal = system: 786-0 renal
A498 renal = system: A498 renal
A549 NSCLC = system: A549 NSCLC
ACHN renal = system: ACHN renal
BT-549 breast = system: BT-549 breast
CAKI-1 renal = system: CAKI-1 renal
CCRF-CEM leukemia = system: CCRF-CEM leukemia
COLO 205 colon = system: COLO 205 colon
DU-145 prostate = system: DU-145 prostate
EKVX NSCLC = system: EKVX NSCLC
HCC-2998 colon = system: HCC-2998 colon
HCT-116 colon = system: HCT-116 colon
HCT-15 colon = system: HCT-15 colon
HL-60(TB) leukemia = system: HL-60(TB) leukemia
HOP-62 NSCLC = system: HOP-62 NSCLC
HOP-92 NSCLC = system: HOP-92 NSCLC
HS 578T breast = system: HS 578T breast
HT29 colon = system: HT29 colon
IGROV1 ovarian = system: IGROV1 ovarian
K-562 leukemia = system: K-562 leukemia
KM12 colon = system: KM12 colon
LOX IMVI melanoma = system: LOX IMVI melanoma
M14 melanoma = system: M14 melanoma
MALME-3M melanoma = system: MALME-3M melanoma
MCF7 breast = system: MCF7 breast
MDA-MB-231 breast = system: MDA-MB-231 breast
MDA-MB-435 = system: MDA-MB-435
MDA-MB-468 breast = system: MDA-MB-468 breast
MOLT-4 leukemia = system: MOLT-4 leukemia
NCI-H226 lung = system: NCI-H226 lung
NCI-H23 lung = system: NCI-H23 lung
NCI-H460 lung = system: NCI-H460 lung
NCI-H522 lung = system: NCI-H522 lung
NCI/ADR-RES ovarian = system: NCI/ADR-RES ovarian
OVCAR-3 ovarian = system: OVCAR-3 ovarian
OVCAR-4 ovarian = system: OVCAR-4 ovarian
OVCAR-5 ovarian = system: OVCAR-5 ovarian
OVCAR-8 ovarian = system: OVCAR-8 ovarian
PC-3 prostate = system: PC-3 prostate
RPMI-8226 leukemia = system: RPMI-8226 leukemia
RXF 393 renal = system: RXF 393 renal
SF-268 CNS = system: SF-268 CNS
SF-295 CNS = system: SF-295 CNS
SF-539 CNS = system: SF-539 CNS
SK-MEL-2 melanoma = system: SK-MEL-2 melanoma
SK-MEL-28 melanoma = system: SK-MEL-28 melanoma
SK-MEL-5 melanoma = system: SK-MEL-5 melanoma
SK-OV-3 ovarian = system: SK-OV-3 ovarian
SN12C renal = system: SN12C renal
SNB-19 CNS = system: SNB-19 CNS
SNB-75 CNS = system: SNB-75 CNS
SW-620 colon = system: SW-620 colon
T-47D breast = system: T-47D breast
TK-10 renal = system: TK-10 renal
U251 CNS = system: U251 CNS
UACC-257 melanoma = system: UACC-257 melanoma
UACC-62 melanoma = system: UACC-62 melanoma
UO-31 renal = system: UO-31 renal

CN(C)CCOc1ccc(C(=O)C2[C@H](c3ccc(Cl)cc3)[C@@H](c3ccccc3)NC23C(=O)Nc2ccccc23)cc1 (stereo partly specified)
GI50 (786-0 renal): 3.14 µM | TGI (786-0 renal): 5.83 µM | GI50 (A498 renal): > 18.5 µM | TGI (A498 renal): > 18.5 µM | GI50 (A549 NSCLC): 5.95 µM | TGI (A549 NSCLC): > 18.5 µM | GI50 (ACHN renal): 4.33 µM | TGI (ACHN renal): 11.7 µM | GI50 (BT-549 breast): > 18.5 µM | TGI (BT-549 breast): > 18.5 µM | GI50 (CAKI-1 renal): 4.5 µM | TGI (CAKI-1 renal): > 18.5 µM | GI50 (CCRF-CEM leukemia): 3.98 µM | TGI (CCRF-CEM leukemia): 13.2 µM | GI50 (COLO 205 colon): 3.58 µM | TGI (COLO 205 colon): 6.93 µM | GI50 (DU-145 prostate): 5.78 µM | TGI (DU-145 prostate): > 18.5 µM | GI50 (EKVX NSCLC): 3.03 µM | TGI (EKVX NSCLC): 6.21 µM | GI50 (HCC-2998 colon): 3.07 µM | TGI (HCC-2998 colon): 5.76 µM | GI50 (HCT-116 colon): 2.96 µM | TGI (HCT-116 colon): 5.51 µM | GI50 (HCT-15 colon): 3.68 µM | TGI (HCT-15 colon): 8.25 µM | GI50 (HL-60(TB) leukemia): 4.11 µM | TGI (HL-60(TB) leukemia): 11.2 µM | GI50 (HOP-62 NSCLC): 6.6 µM | TGI (HOP-62 NSCLC): > 18.5 µM | GI50 (HOP-92 NSCLC): 3.03 µM | TGI (HOP-92 NSCLC): 12.7 µM | GI50 (HS 578T breast): 3.88 µM | TGI (HS 578T breast): > 18.5 µM | GI50 (HT29 colon): 3.32 µM | TGI (HT29 colon): 7.13 µM | GI50 (IGROV1 ovarian): 10.4 µM | TGI (IGROV1 ovarian): > 18.5 µM | GI50 (K-562 leukemia): 3.86 µM | TGI (K-562 leukemia): 11.7 µM | GI50 (KM12 colon): 3.56 µM | TGI (KM12 colon): 7.3 µM | GI50 (LOX IMVI melanoma): 2.62 µM | TGI (LOX IMVI melanoma): 5.02 µM | GI50 (M14 melanoma): 2.89 µM | TGI (M14 melanoma): 5.69 µM | GI50 (MALME-3M melanoma): 2.92 µM | TGI (MALME-3M melanoma): 5.48 µM | GI50 (MCF7 breast): 3.18 µM | TGI (MCF7 breast): 6.32 µM | GI50 (MDA-MB-231 breast): 3.55 µM | TGI (MDA-MB-231 breast): 10.2 µM | GI50 (MDA-MB-435): 3.04 µM | TGI (MDA-MB-435): 5.99 µM | GI50 (MDA-MB-468 breast): 2.91 µM | TGI (MDA-MB-468 breast): 5.74 µM | GI50 (MOLT-4 leukemia): 3.3 µM | TGI (MOLT-4 leukemia): 8.62 µM | GI50 (NCI-H226 lung): 7.97 µM | TGI (NCI-H226 lung): > 18.5 µM | GI50 (NCI-H23 lung): 3.95 µM | TGI (NCI-H23 lung): 9.94 µM | GI50 (NCI-H460 lung): 3.29 µM | TGI (NCI-H460 lung): 6.17 µM | GI50 (NCI-H522 lung): 7.52 µM | TGI (NCI-H522 lung): > 18.5 µM | GI50 (NCI/ADR-RES ovarian): 5.9 µM | TGI (NCI/ADR-RES ovarian): > 18.5 µM | GI50 (OVCAR-3 ovarian): 3.41 µM | TGI (OVCAR-3 ovarian): 7.55 µM | GI50 (OVCAR-4 ovarian): 8.79 µM | TGI (OVCAR-4 ovarian): > 18.5 µM | GI50 (OVCAR-5 ovarian): 4.41 µM | TGI (OVCAR-5 ovarian): > 18.5 µM | GI50 (OVCAR-8 ovarian): 4.56 µM | TGI (OVCAR-8 ovarian): 11 µM | GI50 (PC-3 prostate): 3.77 µM | TGI (PC-3 prostate): 11.2 µM | GI50 (RPMI-8226 leukemia): 3.95 µM | TGI (RPMI-8226 leukemia): 11.3 µM | GI50 (RXF 393 renal): 2.88 µM | TGI (RXF 393 renal): 12 µM | GI50 (SF-268 CNS): 9.62 µM | TGI (SF-268 CNS): > 18.5 µM | GI50 (SF-295 CNS): 3.22 µM | TGI (SF-295 CNS): 6.52 µM | GI50 (SF-539 CNS): 3.14 µM | TGI (SF-539 CNS): 6.01 µM | GI50 (SK-MEL-2 melanoma): 3.6 µM | TGI (SK-MEL-2 melanoma): 7.11 µM | GI50 (SK-MEL-28 melanoma): 3.05 µM | TGI (SK-MEL-28 melanoma): 5.62 µM | GI50 (SK-MEL-5 melanoma): 3.11 µM | TGI (SK-MEL-5 melanoma): 5.99 µM | GI50 (SK-OV-3 ovarian): > 18.5 µM | TGI (SK-OV-3 ovarian): > 18.5 µM | GI50 (SN12C renal): 10.6 µM | TGI (SN12C renal): > 18.5 µM | GI50 (SNB-19 CNS): 8.07 µM | TGI (SNB-19 CNS): > 18.5 µM | GI50 (SNB-75 CNS): 4.58 µM | TGI (SNB-75 CNS): > 18.5 µM | GI50 (SW-620 colon): 3.13 µM | TGI (SW-620 colon): 6.05 µM | GI50 (T-47D breast): 9.41 µM | TGI (T-47D breast): > 18.5 µM | GI50 (TK-10 renal): > 18.5 µM | TGI (TK-10 renal): > 18.5 µM | GI50 (U251 CNS): 3.13 µM | TGI (U251 CNS): 6.07 µM | GI50 (UACC-257 melanoma): 3.38 µM | TGI (UACC-257 melanoma): 7.54 µM | GI50 (UACC-62 melanoma): 2.88 µM | TGI (UACC-62 melanoma): 5.59 µM | GI50 (UO-31 renal): 6.9 µM | TGI (UO-31 renal): > 18.5 µM

Reference: PubChem BioAssay (NCI)
